Test results as given in patent US10975093B2, “Fused 1,4-diazepines as BET protein degraders” (THE REGENTS OF THE UNIVERSITY OF MICHIGAN, priority 2016, dated 2021).

Assays:
MDA-MB-231 = experiment: Cell growth inhibition, CellTiter-Glo Luminescent Cell Viability Assay, MDA-MB-231; format: cell-based; details: Homo sapiens, MDA-MB-231, 96 h, MDA-MB-231 cells, 4 days incubation
Experimental: (§1) Cell growth inhibitory activity of representative Compounds of the Disclosure was determined in various cell lines using CellTiter-Glo® Luminescent Cell Viability Assay. Cells were seeded in 384-well white opaque cell culture plates at a density of 2,000 cells/well with serially diluted compounds and incubated at 37° C. in an atmosphere of 95% air and 5% CO2 for 4 days. Cell viability was determined using the CellTiter-Glo® Luminescent Cell Viability Assay Kit (Promega, Madison, Wis.) according to the manufacture's instruction. Briefly, a volume of CellTiter-Glo® Reagent equal to the volume of cell culture medium was added to each well, and then the plates were incubated at room temperature for 10-20 minutes. The luminescent signal was measured using a Tecan Infinite M1000 multimode microplate reader (Tecan, Morrisville, N.C.). The half maximal inhibitory concentration (IC50) was calculated using the GraphPad Prism 5 software (GraphPad Software, La Jolla, Calif.).

MOLM-13 = experiment: Cell growth inhibition, CellTiter-Glo Luminescent Cell Viability Assay, MOLM-13; format: cell-based; details: Homo sapiens, MOLM-13, 96 h, MOLM-13 cells, 4 days incubation
Experimental: as §1

Molecule `Cc1c(C#Cc2cnn(CCOCCOCCOCC#Cc3cccc4c3CN(C3CCC(=O)NC3=O)C4=O)c2)sc2c1C(c1ccc(Cl)cc1)=N[C@@H](CC(N)=O)c1nnc(C)n1-2` (stereo partly drawn) [compound 195, 2-((6S)-4-(4-chlorophenyl)-2-((1-(2-(2-(2-((3-(2-(2,6-dioxopiperidin-3-yl)-1-oxoisoindolin-4-yl)prop-2-yn-1-yl)oxy)ethoxy)ethoxy)ethyl)-1H-pyrazol-4-yl)ethynyl)-3,9-dimethyl-6H-thieno[3,2-f][1,2,4]triazolo[4,3-a][1,4]diazepin-6-yl)acetamide] has an IC50 (MDA-MB-231) of 5.4 nM and an IC50 (MOLM-13) of 2.4 nM.

`Cc1c(C#Cc2cnn(CCCCNc3cccc4c3C(=O)N(C3(F)CCC(=O)NC3=O)C4=O)c2)sc2c1C(c1ccc(Cl)cc1)=NCc1nnc(C)n1-2` (stereo not drawn) [compound 144, 4-((4-(4-((4-(4-chlorophenyl)-3,9-dimethyl-6H-thieno[3,2-f][1,2,4]triazolo[4,3-a][1,4]diazepin-2-yl)ethynyl)-1H-pyrazol-1-yl)butyl)amino)-2-(3-fluoro-2,6-dioxopiperidin-3-yl)isoindoline-1,3-dione] showed an IC50 (MDA-MB-231) of 10.1 nM and an IC50 (MOLM-13) of 6.8 nM.

`Cc1c(C#Cc2cnn(CCN3CC(CNc4cccc5c4CN(C4CCC(=O)NC4=O)C5=O)C3)c2)sc2c1C(c1ccc(Cl)cc1)=N[C@@H](C)c1nnc(C)n1-2` (stereo partly drawn) [compound 175, 3-(4-(((1-(2-(4-(((S)-4-(4-chlorophenyl)-3,6,9-trimethyl-6H-thieno[3,2-f][1,2,4]triazolo[4,3-a][1,4]diazepin-2-yl)ethynyl)-1H-pyrazol-1-yl)ethyl)azetidin-3-yl)methyl)amino)-1-oxoisoindolin-2-yl)piperidine-2,6-dione] was tested, and the IC50 (MDA-MB-231) was 1.5 nM and the IC50 (MOLM-13) was 0.35 nM.

Work on `Cc1c(C#Cc2cnn(C[C@H]3CC[C@@H](Nc4cccc5c4CN(C4CCC(=O)NC4=O)C5=O)CC3)c2)sc2c1C(c1ccc(Cl)cc1)=N[C@@H](C)c1nnc(C)n1-2` (stereo partly drawn) [compound 172, 3-(4-(((1R,4s)-4-((4-(((S)-4-(4-chlorophenyl)-3,6,9-trimethyl-6H-thieno[3,2-f][1,2,4]triazolo[4,3-a][1,4]diazepin-2-yl)ethynyl)-1H-pyrazol-1-yl)methyl)cyclohexyl)amino)-1-oxoisoindolin-2-yl)piperidine-2,6-dione] yielded an IC50 (MDA-MB-231) of 4.4 nM and an IC50 (MOLM-13) of 2.3 nM.

Work on `Cc1ncsc1-c1ccc([C@H](C)NC(=O)[C@@H]2C[C@@](C)(O)CN2C(=O)[C@@H](NC(=O)COCCCn2cc(C#Cc3sc4c(c3C)C(c3ccc(Cl)cc3)=N[C@@H](C)c3nnc(C)n3-4)cn2)C(C)(C)C)cc1` [compound 205, (2S,4R)-1-((S)-2-(2-(3-(4-(((S)-4-(4-chlorophenyl)-3,6,9-trimethyl-6H-thieno[3,2-f][1,2,4]triazolo[4,3-a][1,4]diazepin-2-yl)ethynyl)-1H-pyrazol-1-yl)propoxy)acetamido)-3,3-dimethylbutanoyl)-4-hydroxy-4-methyl-N-((S)-1-(4-(4-methylthiazol-5-yl)phenyl)ethyl)pyrrolidine-2-carboxamide] yielded an IC50 (MDA-MB-231) of 93 nM and an IC50 (MOLM-13) of 42.3 nM.

`Cc1ncsc1-c1ccc([C@H](C)NC(=O)[C@@H]2C[C@@H](F)CN2C(=O)[C@@H](NC(=O)COCCCn2cc(C#Cc3sc4c(c3C)C(c3ccc(Cl)cc3)=N[C@@H](C)c3nnc(C)n3-4)cn2)C(C)(C)C)cc1` [compound 203] gave an IC50 (MDA-MB-231) of 37.5 nM.

Work on `Cc1c(C#Cc2cnn(CCCC#Cc3cccc4c3C(=O)N(C3CCCNC3=O)C4=O)c2)sc2c1C(c1ccc(Cl)cc1)=N[C@@H](C)c1nnc(C)n1-2` (stereo partly drawn) [compound 160, 4-(5-(4-(((S)-4-(4-chlorophenyl)-3,6,9-trimethyl-6H-thieno[3,2-f][1,2,4]triazolo[4,3-a][1,4]diazepin-2-yl)ethynyl)-1H-pyrazol-1-yl)pent-1-yn-1-yl)-2-(2-oxopiperidin-3-yl)isoindoline-1,3-dione] yielded an IC50 (MDA-MB-231) of 58.8 nM and an IC50 (MOLM-13) of 42.6 nM.

`Cc1c(C#Cc2ccc(CCC#Cc3cccc4c3CN(C3CCC(=O)NC3=O)C4=O)cn2)sc2c1C(c1ccc(Cl)cc1)=N[C@@H](C)c1nnc(C)n1-2` (stereo partly drawn) [compound 182, 3-(4-(4-(6-(((S)-4-(4-chlorophenyl)-3,6,9-trimethyl-6H-thieno[3,2-f][1,2,4]triazolo[4,3-a][1,4]diazepin-2-yl)ethynyl)pyridin-3-yl)but-1-yn-1-yl)-1-oxoisoindolin-2-yl)piperidine-2,6-dione] was tested, and the IC50 (MDA-MB-231) was 1.7 nM and the IC50 (MOLM-13) was 2.8 nM.

Work on `Cc1c(C#Cc2cnn(CCCCOc3cccc4c3CN(C3CCC(=O)NC3=O)C4=O)c2)sc2c1C(c1ccc(Cl)cc1)=NCc1nnc(C)n1-2` (stereo not drawn) [compound 146, 3-(4-(4-(4-((4-(4-chlorophenyl)-3,9-dimethyl-6H-thieno[3,2-f][1,2,4]triazolo[4,3-a][1,4]diazepin-2-yl)ethynyl)-1H-pyrazol-1-yl)butoxy)-1-oxoisoindolin-2-yl)piperidine-2,6-dione] yielded an IC50 (MDA-MB-231) of 1.2 nM and an IC50 (MOLM-13) of 1 nM.

Molecule `Cc1c(C#Cc2cnn(CCCNc3ccc4c(c3)CN(C3CCC(=O)NC3=O)C4=O)c2)sc2c1C(c1ccc(Cl)cc1)=N[C@@H](C)c1nnc(C)n1-2` (stereo partly drawn) [compound 185, 3-(5-((3-(4-(((S)-4-(4-chlorophenyl)-3,6,9-trimethyl-6H-thieno[3,2-f][1,2,4]triazolo[4,3-a][1,4]diazepin-2-yl)ethynyl)-1H-pyrazol-1-yl)propyl)amino)-1-oxoisoindolin-2-yl)piperidine-2,6-dione] has an IC50 (MDA-MB-231) of 0.1 nM and an IC50 (MOLM-13) of 0.2 nM.

`Cc1c(C#Cc2cnn(CCn3cnc(CNc4cccc5c4CN(C4CCC(=O)NC4=O)C5=O)c3)c2)sc2c1C(c1ccc(Cl)cc1)=NCc1nnc(C)n1-2` (stereo not drawn) [compound 150, 3-(4-(((1-(2-(4-((4-(4-chlorophenyl)-3,9-dimethyl-6H-thieno[3,2-f][1,2,4]triazolo[4,3-a][1,4]diazepin-2-yl)ethynyl)-1H-pyrazol-1-yl)ethyl)-1H-imidazol-4-yl)methyl)amino)-1-oxoisoindolin-2-yl)piperidine-2,6-dione] was tested, and the IC50 (MDA-MB-231) was over 100 nM and the IC50 (MOLM-13) was over 100 nM.

`Cc1ncsc1-c1ccc([C@H](C)NC(=O)[C@@H]2C[C@@H](O)CN2C(=O)[C@@H](NC(=O)COCCOCCOCCn2cc(C#Cc3sc4c(c3C)C(c3ccc(Cl)cc3)=N[C@@H](C)c3nnc(C)n3-4)cn2)C(C)(C)C)cc1` [compound 200, (2S,4R)-1-((S)-2-(tert-butyl)-14-(4-(((S)-4-(4-chlorophenyl)-3,6,9-trimethyl-6H-thieno[3,2-f][1,2,4]triazolo[4,3-a][1,4]diazepin-2-yl)ethynyl)-1H-pyrazol-1-yl)-4-oxo-6,9,12-trioxa-3-azatetradecanoyl)-4-hydroxy-N-((S)-1-(4-(4-methylthiazol-5-yl)phenyl)ethyl)pyrrolidine-2-carboxamide] showed an IC50 (MDA-MB-231) of 3.1 nM and an IC50 (MOLM-13) of 0.34 ± 0.03 nM.

`Cc1c(C#Cc2cnn(CCOCCOCCOCC#Cc3cccc4c3CN(C3CCC(=O)NC3=O)C4=O)c2)sc2c1C(c1ccc(Cl)cc1)=N[C@@H](CC(=O)OC(C)(C)C)c1nnc(C)n1-2` (stereo partly drawn) [compound 194, tert-butyl 2-((6S)-4-(4-chlorophenyl)-2-((1-(2-(2-(2-((3-(2-(2,6-dioxopiperidin-3-yl)-1-oxoisoindolin-4-yl)prop-2-yn-1-yl)oxy)ethoxy)ethoxy)ethyl)-1H-pyrazol-4-yl)ethynyl)-3,9-dimethyl-6H-thieno[3,2-f][1,2,4]triazolo[4,3-a][1,4]diazepin-6-yl)acetate] showed an IC50 (MDA-MB-231) of 0.7 nM and an IC50 (MOLM-13) of 0.8 nM.

With `Cc1c(C#Cc2cnn(CCCCN3CCC(Nc4cccc5c4CN(C4CCC(=O)NC4=O)C5=O)CC3)c2)sc2c1C(c1ccc(Cl)cc1)=NCc1nnc(C)n1-2` (stereo not drawn) [compound 149, 3-(4-((1-(4-(4-((4-(4-chlorophenyl)-3,9-dimethyl-6H-thieno[3,2-f][1,2,4]triazolo[4,3-a][1,4]diazepin-2-yl)ethynyl)-1H-pyrazol-1-yl)butyl)piperidin-4-yl)amino)-1-oxoisoindolin-2-yl)piperidine-2,6-dione] the IC50 (MDA-MB-231) was 0.67 nM and the IC50 (MOLM-13) was 0.42 nM.

`Cc1c(C#Cc2cnn(CCOCCOCCNc3cccc4c3CN(C3CCC(=O)NC3=O)C4=O)c2)sc2c1C(c1ccc(Cl)cc1)=N[C@@H](C)c1nnc(C)n1-2` (stereo partly drawn) [compound 188, 3-(4-((2-(2-(2-(4-(((S)-4-(4-chlorophenyl)-3,6,9-trimethyl-6H-thieno[3,2-f][1,2,4]triazolo[4,3-a][1,4]diazepin-2-yl)ethynyl)-1H-pyrazol-1-yl)ethoxy)ethoxy)ethyl)amino)-1-oxoisoindolin-2-yl)piperidine-2,6-dione] showed an IC50 (MDA-MB-231) of 1.7 nM.

Work on `Cc1ncsc1-c1ccc([C@H](C)NC(=O)[C@@H]2COCCN2C(=O)[C@@H](NC(=O)COCCCn2cc(C#Cc3sc4c(c3C)C(c3ccc(Cl)cc3)=N[C@@H](C)c3nnc(C)n3-4)cn2)C(C)(C)C)cc1` [compound 202, (S)-4-((S)-2-(2-(3-(4-(((S)-4-(4-chlorophenyl)-3,6,9-trimethyl-6H-thieno[3,2-f][1,2,4]triazolo[4,3-a][1,4]diazepin-2-yl)ethynyl)-1H-pyrazol-1-yl)propoxy)acetamido)-3,3-dimethylbutanoyl)-N-((S)-1-(4-(4-methylthiazol-5-yl)phenyl)ethyl)morpholine-3-carboxamide] yielded an IC50 (MOLM-13) of 91.6 nM.

With `Cc1c(C#Cc2cnn(CCCN3CC(Nc4cccc5c4CN(C4CCC(=O)NC4=O)C5=O)C3)c2)sc2c1C(c1ccc(Cl)cc1)=N[C@@H](C)c1nnc(C)n1-2` (stereo partly drawn) [compound 177, 3-(4-((1-(3-(4-(((S)-4-(4-chlorophenyl)-3,6,9-trimethyl-6H-thieno[3,2-f][1,2,4]triazolo[4,3-a][1,4]diazepin-2-yl)ethynyl)-1H-pyrazol-1-yl)propyl)azetidin-3-yl)amino)-1-oxoisoindolin-2-yl)piperidine-2,6-dione] the IC50 (MOLM-13) was 0.6 nM.
